Values joined by “and” are separate entries in the source; they are usually repeats but may differ in a detail not shown here. Identical values can stand only once. Counter-ions that a name gives are not always drawn. Like-named read-outs stand apart in the source and are kept apart here.
How the values were obtained:
[1] = system: acetic acid writhing response in mice; test: animal or person; type: in vivo, Kunming mice
Description: In the hot-plate test, a animal is positioned on a hot plate and is exposed to a standard heat source, and the time that the animal voluntarily endures the heat, prior to licking its paws, is recorded. In the acid-writhing test, the animal is injected into the intraperitoneal cavity and results in a writhing response. For the tail-flick test the animal's tail is subjected to heat or electrical stimulus and the time taken for the animal to remove its tail away from the noxious stimulus is recorded. Analgesics, particularly opioid analgesics, will prolong these times relative to controls.
The mice were randomly divided into 5 groups (n=10 in each group): saline control, acetylsalicylic acid 400 mg/kg^−1, crotoxin 66.5, 44.3, or 29.5 mcg.kg^−1 −1. Pain threshold was measured 3 h after drug administration.
The mice were randomly divided into 2 groups (n=10 in each group): saline control and crotoxin 0.3 mcg.kg^−1 −1. The effects of crotoxin on pain threshold were measured 1 hour after crotoxin or saline administration.
The mice were randomly divided into 4 groups (n=10 in each group): saline control, crotoxin 44.3 mcg.kg^−1 −1, acetylsalicylic acid (Ace) 300 mg/kg^−1, and crotoxin+acetylsalicylic acid. Acetylsalicylic acid 300 mg/kg^−1 (im) and crotoxin 44.3 mcg.kg^−1 −1 (im) were administrated at the same time. Pain threshold was determined 2 h after crotoxin administration.

[2] = system: pain response in mice induced by Hot Plate; type: in vivo, Kunming mice; details: for Pain thresholds: Acetylsalicylic acid 400 mg·kg−1; for Pain threshold, Baseline: before drugs; for Pain threshold, After drug administration: crotoxin 44.3 μg·kg−1; for Time lapse before pain response: Dolantin 40000 μg/kg ip
animal models of pain = test: Crotamine in animal models of pain; type: in vivo; details: applicant's own studies vs published observations
From the text: The analgesic effect of snake venom proteins has been known since antiquity and several authors have pointed out the efficiency of the administration of crude cobra or rattlesnake venoms in the treatment of trigeminal neuralgias, tabetic and pain caused by tumors. In the cases of tumoral pains, the patients could be maintained without the administration of morphine in 70% of the cases. Obviously, at the time, crude venoms were employed without even an adequate knowledge of the source or mechanism. Sometimes venoms from cobras captured in India or South Africa were employed indistinctly (see, Haast, U.S. Pat. No. 4,341,762). […] With respect to crotamine, it was assumed that this represented the anti-nociceptive component of Crotalus durissus terrificus venom.

[3] = in vivo; cited from earlier work

Compound: CC(=O)Oc1ccccc1C(=O)O [Acetylsalicylic acid, acetylsalicylic acid]
- The number of writhings after administration ([1]; Acetylsalicylic acid 400 mg·kg−1, 3 h after drug administration): 8.80 ± 6.36 times/10 min
- inhibition at 400 mg/kg ([1]; Mus musculus, 3 h, read-out: Percentage inhibition compared with control group): 70.1%
- effect on the analgesic effects of crotoxin ([1]; acetylsalicylic acid 300 mg/kg (ip)): significantly enhanced
- analgesic effect, acetylsalicylic acid study ([1]; acetylsalicylic acid 300 mg/kg, crotoxin 44.3 mcg/kg, given at the same time): significant analgesic effects
- The number of writhings ([1]; crotoxin 44.3 μg·kg−1 and acetylsalicylic acid (table: 0.3 mg·kg−1; text: 300 mg/kg) given at the same time, 2 h after crotoxin): 12.13 ± 9.04 times/10 min
- Pain thresholds ([2]; 1 h after administration): 28.12 ± 6.95 s
- Pain thresholds ([2]; 2 h after administration): 24.50 ± 14.14 s
- Pain thresholds ([2]; 3 h after administration): 26.22 ± 14.32 s
- Pain thresholds ([2]; Baseline): 17.36 ± 2.72 s

Compound: crotamine (YKQCHKKGGHCFPKEKICLPPSSDFGKMDCRWRWKCCKKGSG; UniProt Q9PWF3 23-64, looked up)
- antinociceptive properties (animal models of pain): failed to confirm these published observations

Compound: CN1[C@@H]2CC[C@H]1C[C@@H](OC(=O)C(CO)c1ccccc1)C2 (stereo partly shown) [Atropine, atropine]
- effect of atropine alone on the pain threshold ([2]; atropine 0.5 mg/kg (im)): no significant effect
- Pain threshold, Baseline ([2]; atropine study): 16.87 ± 3.10 s
- Pain threshold, After drug administration ([2]; atropine 0.5 mg·kg−1 or NS (im) 1.5 h after crotoxin, determined 1.5 h after atropine): 18.46 ± 3.25 s

Compound: CCOC(=O)C1(c2ccccc2)CCN(C)CC1 [Dolantin, Meperidine hydrochloride]
- analgesic potency relative to morphine [3]: one-tenth as potent an analgesic as morphine
- duration [3]: 2 to 4 h
- onset of activity [3]: 10 to 45 min
- Time lapse before pain response ([2]; 30 min after drug, hydrochloride): 56 s and 56.14 s
- Time lapse before pain response ([2]; 60 min after drug): 55.49 s
- Time lapse before pain response ([2]; 90 min after drug, hydrochloride): 36 s and 36.36 s
- Time lapse before pain response ([2]; 120 min after drug, hydrochloride): 34 s and 34.03 s
- Time lapse before pain response ([2]; Pre-drug, hydrochloride): 13.2 s and 13.20 s

Compound: C=CCN1CC[C@]23c4c5ccc(O)c4O[C@H]2C(=O)CC[C@@]3(O)[C@H]1C5 [Naloxone, Naloxone hydrochloride]
- Pain threshold, After drug administration ([2]; naloxone 3 mg·kg−1 or NS (i.p.) 2.5 hours after crotoxin, determined 30 minutes after naloxone): 19.04 ± 4.88 s
- effect of naloxone alone on the pain threshold ([2]; naloxone 3 mg/kg (ip)): no significant influence
- effect on the analgesia induced by crotoxin ([2]; naloxone (ip)): had no effect
- Pain threshold, Baseline ([2]; naloxone study): 16.97 ± 3.64 s
